The experiment deals with Bacillus cereus spores. Nature of the experiment: Rate of Kill Antimicrobial Efficacy (SOP CB021-04), Formulas 1-8 with octanoic/peroctanoic acid, 40° C. It is filed as cell-based. The conditions noted are these: on a weight basis. On the procedure: Ecolab Microbiological Services SOP CB021-04; Rate of Kill Antimicrobial Efficacy. Following exposure to the formula and subsequent neutralization, spores were heat shocked for 13 minutes at 80° C. before plating. [table]

Consider `CCCCCCCC(=O)OO` [peroctanoic acid, peroxyoctanoic acid], for which the “effect on the sporicidal efficacy of 150 ppm POAA against B. cereus, compared with octanoic acid” value was “greater effect”.

Source of the values: patent US7056536B2, “Non-corrosive sterilant composition” (Ecolab Inc., priority 1998, dated 2006).
